{"source": "patent US11046715B2", "about": "“Boronic derivatives of hydroxamates as anticancer agents” (Xavier University of Louisiana, priority 2016, dated 2021)", "key": {"[1]": {"system": "MCF-7 tumor xenograft", "experiment": "In vivo efficacy in MCF-7 tumor xenograft model in mice", "details": "10 mg/kg/day subcutaneous; for effect on tumor growth (in words): compared with vehicle group; for average tumor volume: day 15; for Tumor volume: day 24, MCF-7 xenograft mice"}, "[2]": {"system": "MDA-MB-231: human breast adenocarcinoma", "experiment": "In vitro cytotoxicity / antiproliferation, MDA-MB-231", "assay_type": "cell-based", "details": "MDA-MB-231, read-out: Antiproliferation activity (IC50)"}, "[3]": {"system": "HeLa: human epitheloid cervix carcinoma", "experiment": "In vitro cytotoxicity / antiproliferation, HeLa", "assay_type": "cell-based", "method": "(§1) The in vitro cytotoxicity of boronic derivatives of hydroxamates was tested against various cancer cell lines; the results are provided in Table 1."}, "[4]": {"system": "MCF-7: human breast adenocarcinoma", "experiment": "In vitro cytotoxicity / antiproliferation, MCF-7", "assay_type": "cell-based", "details": "MCF7", "method": "as §1"}, "[5]": {"system": "A549: human non-small-cell lung carcinoma", "experiment": "In vitro cytotoxicity / antiproliferation, A549", "assay_type": "cell-based", "method": "as §1"}, "[6]": {"system": "SK-MEL-28: human melanoma", "experiment": "In vitro cytotoxicity / antiproliferation, SK-MEL-28", "assay_type": "cell-based", "details": "SK-MEL-28, read-out: Antiproliferation activity (IC50)"}, "[7]": {"system": "SK-OV-3: human ovarian cancer", "experiment": "In vitro cytotoxicity / antiproliferation, SK-OV-3", "assay_type": "cell-based"}, "[8]": {"system": "NCI-H460: human non-small-cell lung cancer", "experiment": "In vitro cytotoxicity / antiproliferation, NCI-H460", "assay_type": "cell-based", "details": "NCI-H460, read-out: Antiproliferation activity (IC50)"}, "[9]": {"system": "MDA-MB-231 cells", "experiment": "In vitro pharmacokinetics: concentrations in culture media after incubation with MDA-MB-231 cells", "assay_type": "in vitro ADME, human", "details": "1-day incubation with MDA-MB-231 cells"}, "[10]": {"experiment": "In vivo pharmacokinetics in mice after intraperitoneal injection (plasma)", "details": "single dose 10 mg/kg IP", "method": "Pharmacokinetic studies of compound 3 in mice were conducted."}, "[11]": {"molecular_target": "Histone deacetylase (HDAC)", "experiment": "Histone deacetylase activity assay kit (Fluorometric) ab156064", "assay_type": "biochemical", "details": "20 min incubation; read-out: HDAC inhibitory activity EC50"}, "[12]": {"experiment": "Concentration in tumor tissue of MCF-7 xenograft mice", "assay_type": "in vivo", "details": "after 24 days at 10 mg/kg/day subcutaneous"}}, "note": "Values joined by “and” are separate entries in the source; they are usually repeats but may differ in a detail not shown here. Equal values may be shown once."}
{"smiles": "O=C(/C=C/c1cccc(S(=O)(=O)Nc2ccccc2)c1)NO", "note": "[Belinostat, reference compound]", "values": [{"measurement": "TGI (inhibition of tumor growth)", "setting": "[1]; 24 days", "result": 77.7, "unit": "%"}, {"measurement": "effect on tumor growth (in words)", "setting": "[1]", "result": "potent inhibitory activity against the growth of tumor"}, {"measurement": "average tumor volume", "setting": "[1]", "result": 167, "unit": "mm^3"}, {"measurement": "Tumor volume", "setting": "[1]", "result": "194 mm^3 and 193.68 ± 29.79 mm^3"}, {"measurement": "IC50", "setting": "[2]", "result": 0.0616, "unit": "µM"}, {"measurement": "IC50", "setting": "[3]", "result": 0.0865, "unit": "µM"}, {"measurement": "IC50", "setting": "[4]", "result": 0.0964, "unit": "µM"}, {"measurement": "IC50", "setting": "[5]", "result": 0.0766, "unit": "µM"}]}
{"smiles": "Cn1c(CCCC(=O)O)nc2cc(N(CCCl)CCCl)ccc21", "note": "[Bendamustine, reference compound]", "values": [{"measurement": "IC50", "setting": "[6]", "result": 149, "unit": "µM"}, {"measurement": "IC50", "setting": "[7]", "result": 33.4, "unit": "µM"}, {"measurement": "IC50", "setting": "[2]", "result": 37.5, "unit": "µM"}, {"measurement": "IC50", "setting": "[8]", "result": 45.3, "unit": "µM"}]}
{"smiles": "CC1(C)OB(c2ccc(CONC(=O)CCCCCCC(=O)Nc3ccccc3)cc2)OC1(C)C", "note": "[Compound 1]", "values": [{"measurement": "IC50", "setting": "[6]", "result": 13.5, "unit": "µM"}, {"measurement": "IC50", "setting": "[7]", "result": 55.2, "unit": "µM"}, {"measurement": "IC50", "setting": "[2]", "result": 423, "unit": "µM"}]}
{"smiles": "CC1(C)OB(c2ccc(CONC(=O)/C=C/c3cccc(S(=O)(=O)Nc4ccccc4)c3)cc2)OC1(C)C", "note": "[Compound 3]", "values": [{"measurement": "conversion of compound 3 in culture media (in words)", "setting": "[9]", "result": "completely converted to compound 95 and partially to belinostat"}, {"measurement": "maximum concentration of compound 95 relative to maximum concentration achieved by belinostat", "setting": "[10]", "result": "about forty times"}, {"measurement": "IC50", "setting": "[6]", "result": 0.678, "unit": "µM"}, {"measurement": "T/C (tumor volume ratio)", "setting": "[1]; 24 days", "result": 14.6, "unit": "%"}, {"measurement": "TGI (inhibition of tumor growth)", "setting": "[1]; 24 days", "result": 85.3, "unit": "%"}, {"measurement": "effect on tumor growth (in words)", "setting": "[1]", "result": "resulted in tumor remission"}, {"measurement": "effect on tumor growth (in words)", "setting": "[1]; listed as compound 3", "result": "potent inhibitory activity against the growth of tumor"}, {"measurement": "average tumor volume", "setting": "[1]", "result": 153, "unit": "mm^3"}, {"measurement": "Tumor volume", "setting": "[1]", "result": 127, "unit": "mm^3"}, {"measurement": "IC50", "setting": "[2]", "result": 0.303, "unit": "µM"}, {"measurement": "IC50", "setting": "[3]", "result": 0.273, "unit": "µM"}, {"measurement": "IC50", "setting": "[8]", "result": 0.43, "unit": "µM"}, {"measurement": "EC50", "setting": "[11]", "result": 0.35, "unit": "µM"}, {"measurement": "concentration of belinostat and compound 95 added together in tumor tissue, relative to belinostat group", "setting": "[12]", "result": "five times greater"}, {"measurement": "IC50", "setting": "[4]", "result": 1.46, "unit": "µM"}, {"measurement": "IC50", "setting": "[5]", "result": 0.453, "unit": "µM"}]}
{"smiles": "CCN(CC)Cc1ccc2cc(COC(=O)Nc3ccc(C(=O)NOCc4ccc(B5OC(C)(C)C(C)(C)O5)cc4)cc3)ccc2c1", "note": "[Compound 4]", "values": [{"measurement": "IC50", "setting": "[6]", "result": 0.377, "unit": "µM"}, {"measurement": "IC50", "setting": "[7]", "result": 0.296, "unit": "µM"}, {"measurement": "IC50", "setting": "[2]", "result": 0.321, "unit": "µM"}, {"measurement": "IC50", "setting": "[8]", "result": 0.154, "unit": "µM"}]}
{"smiles": "CN(C)Cc1ccc(S(=O)(=O)n2ccc(/C=C/C(=O)NOCc3ccc(B4OC(C)(C)C(C)(C)O4)cc3)c2)cc1", "note": "[Compound 5]", "values": [{"measurement": "IC50", "setting": "[2]", "result": "> 10", "unit": "µM"}, {"measurement": "IC50", "setting": "[3]", "result": "> 10", "unit": "µM"}, {"measurement": "IC50", "setting": "[5]", "result": "> 10", "unit": "µM"}]}
{"smiles": "Cn1c(CCCC(=O)NOCc2ccc(B3OC(C)(C)C(C)(C)O3)cc2)nc2cc(N(CCCl)CCCl)ccc21", "note": "[Compound 7]", "values": [{"measurement": "IC50", "setting": "[6]", "result": 0.373, "unit": "µM"}, {"measurement": "IC50", "setting": "[7]", "result": 1.84, "unit": "µM"}, {"measurement": "IC50", "setting": "[2]", "result": 3.33, "unit": "µM"}, {"measurement": "IC50", "setting": "[8]", "result": 1.22, "unit": "µM"}]}
{"smiles": "COc1ccc(C(=O)NOCc2ccc(B3OC(C)(C)C(C)(C)O3)cc2)cc1", "note": "[Compound 10]", "values": [{"measurement": "IC50", "setting": "[2]", "result": "> 10", "unit": "µM"}, {"measurement": "IC50", "setting": "[3]", "result": "> 10", "unit": "µM"}, {"measurement": "IC50", "setting": "[5]", "result": "> 10", "unit": "µM"}]}
{"smiles": "CC1=C(CC(=O)NOCc2ccc(B3OC(C)(C)C(C)(C)O3)cc2)c2cc(F)ccc2/C1=C/c1ccc([S+](C)[O-])cc1", "note": "(stereo not drawn) [Compound 11]", "values": [{"measurement": "IC50", "setting": "[6]", "result": 77.4, "unit": "µM"}, {"measurement": "IC50", "setting": "[7]", "result": 19.4, "unit": "µM"}, {"measurement": "IC50", "setting": "[2]", "result": 20.1, "unit": "µM"}, {"measurement": "IC50", "setting": "[3]", "result": 277, "unit": "µM"}, {"measurement": "IC50", "setting": "[8]", "result": 1.01, "unit": "µM"}, {"measurement": "IC50", "setting": "[5]", "result": 696, "unit": "µM"}]}
{"smiles": "COc1cc(C(=O)NOCc2ccc(B3OC(C)(C)C(C)(C)O3)cc2)cc(OC)c1OC", "note": "[Compound 13]", "values": [{"measurement": "IC50", "setting": "[2]", "result": "> 10", "unit": "µM"}, {"measurement": "IC50", "setting": "[3]", "result": "> 10", "unit": "µM"}, {"measurement": "IC50", "setting": "[5]", "result": "> 10", "unit": "µM"}]}
{"smiles": "CC(C)Cc1ccc(C(C)C(=O)NOCc2ccc(B3OC(C)(C)C(C)(C)O3)cc2)cc1", "note": "(stereo not drawn) [Compound 14]", "values": [{"measurement": "IC50", "setting": "[2]", "result": "> 10", "unit": "µM"}, {"measurement": "IC50", "setting": "[3]", "result": "> 10", "unit": "µM"}, {"measurement": "IC50", "setting": "[5]", "result": "> 10", "unit": "µM"}]}
{"smiles": "CC1(C)OB(c2ccc(CONC(=O)c3cc4ccccc4oc3=O)cc2)OC1(C)C", "note": "[Compound 15]", "values": [{"measurement": "IC50", "setting": "[2]", "result": "> 10", "unit": "µM"}, {"measurement": "IC50", "setting": "[3]", "result": "> 10", "unit": "µM"}, {"measurement": "IC50", "setting": "[5]", "result": "> 10", "unit": "µM"}]}
{"smiles": "COc1ccc(C(=O)NOCc2ccc(B3OC(C)(C)C(C)(C)O3)cc2)cc1OC", "note": "[Compound 16]", "values": [{"measurement": "IC50", "setting": "[2]", "result": "> 10", "unit": "µM"}, {"measurement": "IC50", "setting": "[3]", "result": "> 10", "unit": "µM"}, {"measurement": "IC50", "setting": "[5]", "result": "> 10", "unit": "µM"}]}
{"smiles": "CCN(CC)Cc1ccc2cc(COC(=O)Nc3ccc(C(=O)NO)cc3)ccc2c1", "note": "[Givinostat, reference compound]", "values": [{"measurement": "IC50", "setting": "[6]", "result": 0.0913, "unit": "µM"}, {"measurement": "IC50", "setting": "[2]", "result": 0.119, "unit": "µM"}, {"measurement": "IC50", "setting": "[8]", "result": 0.103, "unit": "µM"}]}
{"smiles": "CC1=C(CC(=O)O)c2cc(F)ccc2/C1=C\\c1ccc([S+](C)[O-])cc1", "note": "(stereo not drawn) [Sulindac, reference compound]", "values": [{"measurement": "IC50", "setting": "[6]", "result": 1400, "unit": "µM"}, {"measurement": "IC50", "setting": "[7]", "result": 109, "unit": "µM"}, {"measurement": "IC50", "setting": "[2]", "result": 1400, "unit": "µM"}, {"measurement": "IC50", "setting": "[3]", "result": 458, "unit": "µM"}, {"measurement": "IC50", "setting": "[8]", "result": 41.9, "unit": "µM"}, {"measurement": "IC50", "setting": "[5]", "result": 20400, "unit": "µM"}]}
